In US7893299B2, “Interleukin-1 and tumor necrosis factor-αmodulators; syntheses of such modulators and methods of using such modulators” (Nereus Pharmaceuticals, Inc., priority 2005, dated 2011):
pIC50: −log10 of the molar value.

How the values were obtained:
IL-8 production = assay: LPS-stimulated IL-8 levels in RPMI 8226 cells (ELISA); assay type: cell-based, human; settings: 20 μM to 0.16 μM
Experimental: Ninety μl of 2.8×10^5/ml and 0.5 ml of 5×10^5/ml RMPI 8226 cells (#CCL-155C, American Type Culture Collection) were seeded in 96-well and 6-well plate in LGM-3 medium, respectively. Cells were cultured overnight at 37° C., 5% CO2 and 95% humidified air. 8-point serial dilution of TTL3 or formula (IIB-A1) was added to cells for 1 hr at the final concentration ranging from 20 μM to 0.16 μM. DMSO was used as control. After 1 hr, 50 ng/ml of LPS diluted in LGM-3 medium from 1 mg/ml stock solution was added to stimulate the cells for additional 10 hr. Supernatants were collected and IL-8 and IL-10 levels were analyzed by using the human IL-8 and IL-10 cytoset ELISA kits.

IκBα phosphorylation = assay: phosphorylation level of IκBα in LPS-stimulated HPBMC (western blot); assay type: cell-based, Human; settings: 13 μM, 20 ng/ml LPS, compared with DMSO control
Experimental: One ml/well of 3×10^6/ml HPBMC were seeded in 6-well plate in LGM-3 medium and cultured for 12 hr at 37° C., 5% CO2 and 95% humidified air. Final concentration of 13 μM for formula (IIB-A1) (or 10 μM for TTL3) was added to HPBMC for 1 hr. DMSO was used as a control. Cells were then stimulated with 20 ng/ml LPS diluted in LGM-3 medium from 1 mg/ml stock solution for 30 min, 1 hr, 2 hr and 4 hr. At the end of each time point, cells were harvested by centrifugation and cell pellets were washed once in ice-cold 1× Dulbecco's Phosphate buffered Saline (DPBS). To prepare samples for SDS Polyacrylamide Gel Electrophoresis (SDS-PAGE), cells were lysed in RIPA buffer (50 mM Tris-HCl, pH7.4, 0.9% NaCl, 1% Triton X-100, 0.25% Na-deoxycholate, 1 mM EDTA, 2 mM Na3VO4 and 1× protease inhibitors cocktail) for 15 min on ice. Cell lysates were cleared by centrifugation at 14,000 rpm, 4° C. for 10 min. Protein concentrations of cell lysates were determined by BCA protein assay kit prior to SDS-PAGE. Equal amount of proteins from various cell lysates were resolved on 10% NuPage MES precast gels and transferred to nitrocellulose membranes according to the manufacturer's instructions. […]

[1] = system: MM cell lines (MM.1S, MM.1R, OCI-MyS, OPM-1, Dox-40); assay: viability of MM cell lines (MM.1S, MM.1R, OCI-MyS, OPM-1, Dox-40); assay type: cell-based; settings: 48 h; all cell lines; read-out: IC50 range, decrease in cell viability
Experimental: Transcription factor NF-KB is linked to growth and survival of multiple myeloma (MM) cells and blockade of NF-KB activity. NPI-1387 (Formula IIB-b1; compound 24 shown above under scheme 4), a potent small-molecule inhibitor of upstream activator of NF-KB, was administered to MM cells and its effect on the viability of MM cells, including those resistant to conventional agents dexamethasone or doxorubicin is shown.

| Compound | LPS-induced IL-8 production (IL-8 production) | LPS-induced IL-8 production (IL-8 production; listed as formula (IIB-A1)) | level of IκBα phosphorylation in LPS-stimulated HPBMC (IκBα phosphorylation; listed as Formula (IIB-a1)) | level of IκBα phosphorylation in LPS-stimulated HPBMC (IκBα phosphorylation; listed as formula (IIB-A1)) | pIC50 [1] |
| --- | --- | --- | --- | --- | --- |
| C=C[C@@]1(C)CCC=C2[C@H]1CC[C@@H]1[C@](C)(C(=O)NC3CCCCC3)CCC[C@@]21C [Formula (IIB-A1), N-Cyclohexylamide Derivative of TTL] | reduces LPS-induced IL-8 and IL-10 production in a dose-dependent manner | inhibits the LPS-induced IL-8 and IL-10 production | decrease | effectively inhibited | – |
| C=CC(=O)C1(C)CCCC2(C)C3=CCC(C)(C=C)C[C@@H]3CC[C@H]12 (stereo in doubt) [NPI-1387, 1-[(1S,4aS,7R)-1,4a,7-Trimethyl-7-vinyl-1,2,3,4,4a,6,7,8,8a,9,10,10a-dodecahydro-1-phenanthrenyl]-2-propen-1-one] | – | – | – | – | 4.40 to 4.60 |
